Test results taken from patent publication US11008332B2, “Pharmaceutical composition for preventing or treating aging-related diseases containing decursin derivative as active ingredient” (PRG S&TECH INC., priority 2017, dated 2021).

Key:
[1] = Liver microsomal stability, rat; type: in vitro ADME
Plasma protein = Plasma protein binding, human; type: in vitro ADME
Procedure: (§1) In vitro ADME studies (plasma protein binding, CYP inhibition, microsomal stability, plasma stability and hERG inhibition) were performed by New drug development center though standard protocols.

Lmna^wt/G609G mice = experiment: Life span and morphology of Lmna^wt/G609G mice; type: in vivo, mouse
Plasma stability, human = type: in vitro ADME
WS cells = experiment: Immunofluorescence staining of Werner syndrome (WS) patient cells (nuclear morphology, proliferation, H3K9me3); type: cell-based, Human
Procedure: Human fibroblast cells from HGPS patients (AG03198, person; AG03199; person), WS patients (AG06300, person; AG03141, person; AG00780, person) and controls (GM 00038, person) were obtained from the Coriell Cell Repositories (Camden, N.J., USA) and were maintained in EMEM, containing 15% FBS, 2 mM glutamine or HEMEM with 26 mM HEPES without antibiotics.
Cells were seeded on a cover glass and transfected with the indicated vectors.
After fixing with 100% methanol or 1% paraformaldehyde (PFA) for 1 h at 4° C., cells were incubated with blocking buffer (PBS+anti-human-Ab; 1:400) for 1 h.
After washing with PBS twice, cells were incubated with anti-Lamin A/C, Progerin or H3K9Me3 in blocking buffer (1:200) overnight and sequentially with anti-goat Ab-FITC or anti-rabbit Ab-rhodamin in blocking buffer (1:500) for 7 h and mounted, and nucleus was stained with DAPI. Thereafter Immunofluorescence signal was detected by fluorescence microscopy (Zeiss and Logos).
For counting nuclear deformed cell, obtained immunofluorescence images were used. Nuclear membrane showing abnormalities, dependent on Lamin A staining, were counted from randomly selected field. Counted cells were calculated percentage.
To measure the cell proliferation, DAPI stained cells were counted from immunofluorescence images.

hERG ion channel = hERG ion channel (Homo sapiens, UniProt Q12809); experiment: hERG inhibition (in vitro ADME); details: in vitro ADME analysis, FIG. 2B
CYP2C19 = CYP2C19 (Homo sapiens, UniProt P33261); experiment: CYP inhibition CYP2C19; type: in vitro ADME
Procedure: as §1

[2] = tested on: collagen 1A expression in normal fibroblast; experiment: Collagen 1A expression in normal fibroblasts 9N and N46 (Western blot); type: cell-based, human; details: normal fibroblast 9N and N46, 2 or 5 μM, 24 hours, FIG. 5B
Procedure: Human keratinocyte HaCaT cells and normal fibroblast 9N (GM 00038, person) and N46 (AG13299, person) were treated with 2 or 5 μM SLC-D011 and incubated for 24 hours and then the amount of collagen 1A expression was confirmed in HaCaT cells and fibroblasts was confirmed.

[3] = Lmna^wt/G609G mice, injection started from 43 weeks old, FIG. 2E

CYP2C19, sequence (P33261 whole entry): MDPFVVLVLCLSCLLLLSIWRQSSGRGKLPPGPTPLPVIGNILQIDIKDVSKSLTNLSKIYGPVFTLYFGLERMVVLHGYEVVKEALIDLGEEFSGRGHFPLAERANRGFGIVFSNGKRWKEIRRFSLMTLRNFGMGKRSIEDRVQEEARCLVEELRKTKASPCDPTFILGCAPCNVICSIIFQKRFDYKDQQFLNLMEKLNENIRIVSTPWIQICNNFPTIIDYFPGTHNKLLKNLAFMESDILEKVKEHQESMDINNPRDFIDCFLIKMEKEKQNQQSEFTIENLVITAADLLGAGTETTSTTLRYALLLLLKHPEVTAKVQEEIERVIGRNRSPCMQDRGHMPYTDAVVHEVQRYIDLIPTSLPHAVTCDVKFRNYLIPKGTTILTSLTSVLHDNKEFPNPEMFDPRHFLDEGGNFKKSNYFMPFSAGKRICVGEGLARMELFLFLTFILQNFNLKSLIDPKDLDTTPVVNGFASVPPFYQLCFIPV
hERG ion channel, sequence (Q12809 whole entry): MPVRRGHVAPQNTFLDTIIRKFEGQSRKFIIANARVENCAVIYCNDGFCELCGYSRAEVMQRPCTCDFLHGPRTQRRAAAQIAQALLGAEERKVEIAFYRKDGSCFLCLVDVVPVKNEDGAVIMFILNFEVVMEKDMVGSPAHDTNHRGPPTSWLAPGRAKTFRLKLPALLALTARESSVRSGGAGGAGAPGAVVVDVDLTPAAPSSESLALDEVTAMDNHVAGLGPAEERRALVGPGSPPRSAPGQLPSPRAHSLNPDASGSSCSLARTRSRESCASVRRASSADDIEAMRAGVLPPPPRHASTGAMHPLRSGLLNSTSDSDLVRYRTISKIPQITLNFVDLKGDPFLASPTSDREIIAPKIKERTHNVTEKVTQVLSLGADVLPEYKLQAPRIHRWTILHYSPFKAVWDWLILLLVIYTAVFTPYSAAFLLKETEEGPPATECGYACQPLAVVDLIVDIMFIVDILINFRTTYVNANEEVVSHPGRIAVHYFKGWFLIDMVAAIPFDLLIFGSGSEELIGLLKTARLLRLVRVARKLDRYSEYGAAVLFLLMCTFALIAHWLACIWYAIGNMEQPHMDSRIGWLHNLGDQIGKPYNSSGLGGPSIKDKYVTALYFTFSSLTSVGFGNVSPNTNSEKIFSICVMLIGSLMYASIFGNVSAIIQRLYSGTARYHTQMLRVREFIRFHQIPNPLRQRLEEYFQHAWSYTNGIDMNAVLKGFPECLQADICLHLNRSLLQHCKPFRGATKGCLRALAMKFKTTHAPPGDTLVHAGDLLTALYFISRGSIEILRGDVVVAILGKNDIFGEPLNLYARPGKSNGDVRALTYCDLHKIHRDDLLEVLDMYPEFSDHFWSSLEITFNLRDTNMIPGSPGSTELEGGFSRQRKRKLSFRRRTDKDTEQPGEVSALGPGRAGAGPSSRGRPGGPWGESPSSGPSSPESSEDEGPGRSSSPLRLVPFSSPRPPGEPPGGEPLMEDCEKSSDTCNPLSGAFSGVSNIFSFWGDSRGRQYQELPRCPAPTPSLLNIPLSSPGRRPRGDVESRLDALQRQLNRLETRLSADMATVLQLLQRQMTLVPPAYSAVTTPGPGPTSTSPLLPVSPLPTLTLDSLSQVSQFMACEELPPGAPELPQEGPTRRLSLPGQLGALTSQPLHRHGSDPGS

CC1(C)Oc2cc3oc(=O)ccc3cc2C[C@@H]1OC/C=C/c1ccccc1 [SLC-D011, (7S)-(+)-8,8-dimethyl-7-(3-phenyl-allyloxy)-7,8-dihydro-6H-pyrano[3,2-g]chromen-2-one]
Liver microsomal stability (% remaining during 30 min) Rat (%) [1]: 17.4% | Plasma protein binding Human (% Bound) (Plasma protein): 99.9 % Bound | lifespan extended from 45 to (Lmna^wt/G609G mice; Lamn^wt/G609G model): 64 weeks | average life span (Lmna^wt/G609G mice; [3]): 65 weeks | maximum (max) life span (Lmna^wt/G609G mice; [3]): 66 weeks | morphology such as hair condition and body size (Lmna^wt/G609G mice; Lmna^wt/G609G mouse, FIG. 2F): greatly improved | Plasma stability (% remaining) Human 30 min (Plasma stability, human; 30 min): >100 % remaining | Plasma stability (% remaining) Human 120 min (Plasma stability, human; 120 min): >100 % remaining | nuclear morphology of WS cells (WS cells; WS cells incubated 48 hr, FIG. 4F): improved nuclear morphology | H3K9me3 expression in WS cells (WS cells; WS cells incubated 48 hr, FIG. 4G): induced expression of H3K9me3 | cell proliferation of WS cells (WS cells; WS patient cells, FIG. 4F): improved nuclear morphology and cell proliferation | hERG ion channel inhibition (hERG ion channel): severe hERG inhibition was not observed | CYP inhibition CYP2C19 (CYP2C19): 28.8 | collagen expression in fibroblasts [2]: increasing collagen expression
